In patent publication US8470311B2, “Therapeutic agent for anaerobic diseases” (priority 2008, dated 2013):
Entries after “also recorded” stand apart in the source; their conditions may differ.

How the values were obtained:
[1] = tested on: Human breast cancer cell line KPL-1; assay: Tumor growth suppression by B. longum Re-105A/pBifiCD, 5-FC and maltose or lactulose, KPL-1 tumor-bearing nude mice; format: in vivo, nude mouse
[2] = tested on: Human stomach cancer cell line MKN45; assay: Tumor growth suppression by B. longum Re-105A/pBifiCD, 5-FC and maltose, MKN45 tumor-bearing nude rats; format: in vivo, nude rat; conditions: maltose 200 mg/body/day ip with bacteria and 5-FC
[3] = tested on: Human breast cancer cell line KPL-1; conditions: 10% maltose ip versus saline

Compound	Mice died during test ([1]; Group C: bacteria, 5-FC, 20% (w/v) lactulose 1 mL ip once a day, deaths Day 13 and Day 19)	Effect of lactulose, conclusion of the test ([1]; lactulose 200 mg/day ip with bacteria and 5-FC)	Effect of maltose, conclusion of the test [2]	Effect of maltose on colonization and proliferation in tumor tissue [3]
OC[C@H]1O[C@@H](O[C@@H]2[C@@H](CO)OC(O)(CO)[C@H]2O)[C@H](O)[C@@H](O)[C@H]1O (mixture of isomers) [lactulose]	two mice had died during the administration period	can enhance the antitumor effect of B. longum Re-105A/pBifiCD		
OC[C@H]1O[C@H](O[C@H]2[C@H](O)[C@@H](O)[C@H](O)O[C@@H]2CO)[C@H](O)[C@@H](O)[C@@H]1O [Maltose]			effect in promoting specific colonization of B. longum Re-105A/pBifiCD in tumor tissue, and an effect in promoting proliferation and an effect in maintaining proliferation in tumor tissue	effect in promoting specific colonization of B. longum Re-105A/pBifiCD in tumor tissue; also recorded: effect in promoting the proliferation and an effect of maintaining the proliferation of B. longum Re-105A/pBifiCD in tumor tissue
